This is an account of results in ChEMBL document CHEMBL3301361, “Experimental in vitro DMPK and physicochemical data on a set of publicly disclosed compounds”.

The data set in a line: physchem. As to conditions: octan-1-ol/water, pH 7.4, LogD7.4.
Compound `O=S(=O)(Cc1cc(Cl)cc(Cl)c1)NCC(c1ccccc1)N1CCCCCC1` (centres undefined) had a logD of 3.23. For `O=S(=O)(NCC(c1ccccc1)N1CCCCCC1)c1ccc(Br)cc1` (centres undefined) the value was 3.21; for `CCCS(=O)(=O)c1ccc(C(CNS(=O)(=O)c2ccc(C(F)(F)F)cc2)N2CCCCCC2)cc1` (centres undefined), 3.32; for `Cc1cc2n[nH]c(=O)n2c2cc(-c3cccc(CO)c3)ccc12`, 3.36.

The compound `Cc1cc2n[nH]c(=O)n2c2cc(-c3ccc[nH]3)ccc12` returned a logD of 3.29. With `COc1ccc(-c2c(C)c3ccc(OC)cc3oc2=O)cc1` the figure was 3.31; with `Cc1cc(Cl)ccc1N1CCN(C(=O)COCc2ccncc2)CC1`, 3.22. Compound `Nc1cccc(C(=O)NCC23CC4CC(CC(C4)C2)C3)c1Cl` registered a log distribution coefficient (logD) of 3.29.

`O=C(O)c1ccc2cccc(O)c2n1` registered a logD of 3.3. For `CSc1ncccc1C(=O)NCCc1ccc(Cl)cc1` the value was 3.31. Regarding `Fc1cccc(C(COCc2cc(C(F)(F)F)cc(C(F)(F)F)c2)N2CCNCC2)c1` (centres undefined), the logD was determined as 3.2. With `c1ccc(-c2ccc(COc3ccc4c(c3)CCC(CCN3CCCCC3)C4)cc2)cc1` (centres undefined) the figure was 3.3. For `O=c1c2cnn(-c3ccccc3)c2nc(-c2ccco2)n1-c1ccccc1` the value was 3.29. For `O=c1ccoc2cc(OCc3ccccc3)ccc12` the value was 3.33; for `O=C(Nc1ccc(F)cc1)c1cccnc1Oc1ccccc1`, 3.19.

`O=C(CSc1ccccc1)N1CCN(c2ccccc2)CC1` had a logD of 3.2. For `COc1cc2c(Nc3ccc(Cl)cc3F)ncnc2cc1OCCn1cncn1` the value was 3.2; for `Cc1cc(C)c2c(n1)sc1c(N3CCN(C)CC3)ncnc12`, 3.2; for `Nc1cccc2c1C(=O)N(Cc1cccc(Cl)c1)C2=O`, 3.18.

In turn, `Oc1nc2ccccc2nc1NCc1ccccc1` gave a logD of 3.3. With `O=C(NCc1ccncc1)c1ccc(Oc2ccccc2)cc1` the figure was 3.26. With `Cc1cc(NC(=O)c2ccc(Cl)cc2)n(-c2ccccc2)n1` the figure was 3.25; with `COCCN1CCN(CC(=O)Nc2ccc(-c3cccn4c(=O)cc(N5CCOCC5)nc34)c3sc4ccccc4c23)CC1`, 3.2; with `CN1CCOc2cc(COc3ccccc3)cnc21`, 3.3. The compound `O=C1CCOc2nc(C#CC3CCCCC3)ccc21` registered a pH-dependent lipophilicity (logD) of 3.3. With `O=C1CCOc2nc(/C=C/c3ccccc3)ccc21` the figure was 3.2; with `CC[C@H](NC(=O)c1c(S(C)(=O)=O)c(-c2ccccc2)nc2ccccc12)c1ccccc1`, 3.17; with `CC[C@H](NC(=O)c1c(CS(C)(=O)=O)c(-c2ccccc2)nc2ccccc12)c1ccccc1`, 3.25. Turning to `CC[C@H](NC(=O)c1c([S+](C)[O-])c(-c2ccccc2)nc2cc(Br)ccc12)c1ccccc1` (some centres undefined), the logD came out at 3.18. With `Oc1ccc(-c2cnc3ccccc3n2)cc1` the figure was 3.3.

In turn, `COc1cc(F)ccc1-c1cncc(CNC(=O)C2CCC2)c1` displayed a logD of 3.2. With `COc1ccc(-c2c(F)ccc3c(N)c(C(=O)NC4CC4)nnc23)c(OC)n1` the figure was 3.37.

For `C[C@H]1CCCN1CCc1cc2cc(-c3ccc(C#N)cc3)ccc2o1`, the logD turned out to be 3.25.

In the case of `COc1cc(N2CCN(C(N)=O)CC2)ccc1Nc1ncc(Cl)c(-c2cnc3ccccn23)n1`, the logD was 3.3. For `COc1cc(N2CCN(C(C)=O)CC2)ccc1Nc1ncc(Cl)c(-c2cnc3c(C)cccn23)n1` the value was 3.2; for `COc1cc(N2CCN(C(C)=O)CC2)ccc1Nc1ncc(Cl)c(-c2cnc3cc(C)ccn23)n1`, 3.3. For `COc1cc(N2CCN(C(C)=O)CC2)ccc1Nc1ncc(Cl)c(-c2cnc3c(F)cc(F)cn23)n1` the value was 3.2; for `CN(C(=O)Cc1ccc(O)cc1)C1CCN(CCC(c2ccccc2)c2ccccc2)CC1`, 3.3. `Oc1ccc(-c2nc3ccc(O)cc3o2)cc1` had a logD of 3.3.

Compound `N[C@H](CNC(=O)c1cc2c(-c3ccccc3Cc3ccccc3)cccc2[nH]1)C(=O)O` yielded a logD of 3.25.

`Cc1c(Sc2ccc(Cl)cc2)c2cc(Cl)ccc2n1Cc1nnn[nH]1` displayed a logD of 3.25. With `N#Cc1c(-c2ccc(-c3ccccc3C(F)(F)F)cc2)nc2ccncc2c1O`, the logD is 3.3.

`O=c1[nH]c(-c2ccccc2)nc2cc(Cl)ccc12` had a logD of 3.31. The compound `COC(=O)c1ccc(NC(=O)c2cc(OC)c(OC)c(OC)c2)cc1` showed a logD of 3.2. On to `Nc1cc2n[nH]c(=O)n2c2cc(-c3cccs3)ccc12`, for which the logD was 3.26. With `Nc1cc2n[nH]c(=O)n2c2cc(-c3ccsc3)ccc12` the figure was 3.18; with `O=C(Nc1ccc(Cl)c(Cl)c1)N1CCN(C[C@H]2CN(C3CC3)CCO2)CC1`, 3.32. With `O=c1c(-c2ccc([N+](=O)[O-])cc2)coc2cc(O)cc(O)c12` the figure was 3.24; with `Cc1cnc(-c2ccc(C)c(NC(=O)c3ccc(OCc4ccccn4)cc3)c2)[nH]1`, 3.19; with `CC(C)(C)OC(=O)N1CCN(c2ncc(OCc3ccc(S(C)(=O)=O)cc3)cn2)CC1`, 3.27.

Consider `Cn1cc(C#N)cc1-c1c2c(=O)n(CC#N)c(=O)n(CC3CC3)c2nn1Cc1ccnc2ccc(Cl)cc12`, for which the log distribution coefficient (logD) turned out to be 3.33.

As to `Cc1ccc(Oc2cccc(CN3CCCC(n4cc(C)c(=O)[nH]c4=O)C3)c2)cc1` (centres undefined), the logD was 3.38. With `Cc1cn(C2CCCN(Cc3cccc(Oc4ccc(Cl)cc4)c3)C2)c(=O)[nH]c1=O` (centres undefined) the figure was 3.38. For `COc1ccc(Oc2cccc(CN3CCCC(n4cc(C)c(=O)[nH]c4=O)C3)c2)cc1` (centres undefined) the value was 3.17; for `CC#Cc1cncc(-c2cccc(C3(C4CC4)N=C(C)C(N)=N3)c2)c1` (centres undefined), 3.3. Take `O=C(NC[C@@H](O)CN1CCC(Oc2ccc(Cl)c(Cl)c2)CC1)c1cn2cc(F)ccc2n1`: the logD was found to be 3.33. Consider `O=C(N[C@H]1Cc2ccccc2N(C[C@@H](O)CO)C1=O)c1cc2cc(Cl)sc2[nH]1`, for which the logD worked out at 3.3. Regarding `C[C@@H](NC(=O)C1(N)CCN(c2ncnc3[nH]ccc23)CC1)c1ccc(Cl)cc1`, the logD worked out at 3.3. With `Nc1nc2cc3c(cc2s1)CCN(Cc1cccc(F)c1)CC3` the figure was 3.3.

In the case of `CCCN(CCC)C(=O)c1cccc(C(=O)N[C@@H](Cc2ccccc2)[C@H](O)CNC2Cc3ccccc3C2)c1`, the log distribution coefficient (logD) came out at 3.3. With `CC(=O)N[C@@H](C)c1ccc(Nc2ncc3cc(-c4ccncc4)ccc3n2)cc1` the figure was 3.17.

In turn, `COCCC(=O)N(C)c1ccc(Nc2ncc3cc(-c4ccncc4)ccc3n2)cc1` showed a log distribution coefficient (logD) of 3.23. For `CC(=O)N[C@H](C)c1ccc(Nc2ncc3cc(-c4ccncc4)ccc3n2)cc1` the value was 3.18; for `C[C@@H](NC1=CC(=O)CCC1)c1ccc(Nc2ncc3cc(-c4ccncc4)ccc3n2)cc1`, 3.17; for `O=C(NC1Cc2ccccc2N(C[C@@H](O)CO)C1=O)c1cc2cc(Cl)sc2[nH]1` (some centres undefined), 3.37. `N#C/C(=C(/N)Sc1ccc(N)cc1)c1ccccc1C(F)(F)F`: the logD is 3.3. With `CCCCCC[C@H]1OC(=O)CNC(=O)[C@@H]([C@H](C)O)NC(=O)[C@H](CO)NC(=O)[C@H]([C@H](C)CC)NC(=O)[C@H](CC(C)C)N(C)C(=O)[C@@H]1C` the figure was 3.2; with `C[C@H](NC(=O)/C=C/c1ccccc1)c1cccc(N2CCOCC2)c1`, 3.24; with `C#CCN(c1ccnc(Nc2ccc(OCC(O)CN(C)C)cc2)n1)c1cc(Cl)ccc1Cl` (centres undefined), 3.2. `CC(C)Cn1c(=O)n(C)c(=O)c2c(S(=O)(=O)N3CC[C@@H](O)C3)c(Cc3ccccc3C(F)(F)F)sc21`: the pH-dependent lipophilicity (logD) was determined as 3.32.

As for `O=C(Nc1nc2ccccc2n1CCN1CCOCC1)c1cccc([N+](=O)[O-])c1`, the logD was 3.3. The compound `COc1cc2ncnc(Nc3cc(Cl)ccc3F)c2cc1OCCCN1CCOCC1` gave a logD of 3.4. `COc1cc(N2CCN(C)CC2)c2nc(C(=O)Nc3ccc(N4CCOCC4)cc3)cc(N(C)C)c2c1` yielded a logD of 3.3. Regarding `O=C(N[C@@H]1Cc2ccccc2N(C[C@@H](O)CO)C1=O)c1cc2cc(Cl)sc2[nH]1`, the log distribution coefficient (logD) came out at 3.27. For `C[C@H](CO)Nc1nc(SCc2cccc(Cl)c2)nc2nc(N)sc12` the value was 3.31; for `O=C(N[C@H]1Cc2ccccc2N(C[C@H](O)CO)C1=O)c1cc2cc(Cl)sc2[nH]1`, 3.27; for `C[C@H](CO)Nc1nc(SCc2cccc(F)c2F)nc2[nH]c(=O)c(C#N)cc12`, 3.32. For the compound `CC(C)Cn1c(=O)n(C)c(=O)c2c(C(=O)N3CC(C)(O)C3)c(Cc3ccccc3C(F)(F)F)sc21`, the logD came to 3.18.

On to `CNC(=O)c1ccc(Nc2ncc(F)c(-c3cnc(C)n3C(C)C)n2)cc1F`, for which the logD was determined as 3.31.

The compound `Cc1oc(S(C)(=O)=O)cc1-c1c2c(=O)n(C)c(=O)n(CC3CC3)c2nn1Cc1ccnc2ccc(Cl)cc12` registered a logD of 3.2. With `Nc1ncc(NC(=O)c2cc(NC(=O)c3cccc(C(F)(F)F)c3)ccc2Cl)cc1Cl` the figure was 3.26; with `O=c1cc(-c2ccc(O)cc2)oc2ccc(O)cc12`, 3.3. The compound `C(=C\c1c(-c2ccccc2)nc2sccn12)/c1ccncn1` showed a log distribution coefficient (logD) of 3.4. With `O=c1oc2ccccc2cc1-c1ccccc1` the figure was 3.22; with `COc1cc2ncc(C(N)=O)c(Nc3ccc(C)cc3F)c2cc1OC`, 3.34. For `CC(C)Oc1ccc(S(C)(=O)=O)cc1C(=O)N1CCN(c2ccc(C(F)(F)F)cc2)CC1` the value was 3.33. With `O=C(COCc1ccccc1)Nc1ccc2c(c1)C(=O)C(=O)c1ccccc1-2` the figure was 3.21; with `Clc1ccc2[nH]ccc2c1`, 3.28. Compound `Cc1cc(Oc2ccnc(Nc3cccc(N4CCOCC4)c3)c2)c(-c2ccccn2)nc1C` registered a logD of 3.27. With `Oc1ccc(CCc2ccc(O)cc2)cc1` the figure was 3.3; with `Cn1c(-c2ccccc2)cc2onc(-c3ccncc3)c2c1=O`, 3.17. Compound `CSc1nc2cc(Cl)ccc2[nH]1` returned a logD of 3.22.

The compound `COc1cc(C(=O)c2cc(Cl)ccc2N)cc(OC)c1OC` came in with a logD of 3.38. With `O=[N+]([O-])c1ccc2c(c1)N(c1cccc[n+]1[O-])CC(C(F)F)(C(F)F)O2` the figure was 3.2.

The term logD denotes lipophilicity at a set pH, counting ionised and neutral species. High values mean higher lipophilicity, low ones lower lipophilicity.
